According to US9693556B2, “Herbicidal pyridazinone derivatives” (SYNGENTA LIMITED, priority 2011, dated 2017):

Experiments:
Type in all cases: in vivo
[1] = tested on: Alopecurus myosuroides (ALOMY); assay: Pre-emergence herbicidal glasshouse test on Alopecurus myosuroides; conditions: pre-emergence; 1000 g/h; evaluated after 13 days
Outline: (§1)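 Scored on a five-point scale (1 = 0-19% to 5 = 80-100% damage) 13 days after treatment. Application rate 1000 g/h in acetone/water (50:50) containing 0.5% Tween 20, sprayed one day post-sowing for pre-emergence or eight days for post-emergence; glasshouse at 24/16° C, 14 h light, 65% humidity.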

[2] = tested on: Ipomoea hederacea (IPOHE); assay: Pre-emergence herbicidal glasshouse test on Ipomoea hederacea; conditions: pre-emergence; 1000 g/h; evaluated after 13 days
Outline: as §1

[3] = tested on: Amaranthus retoflexus (AMARE); assay: Pre-emergence herbicidal glasshouse test on Amaranthus retoflexus; conditions: pre-emergence; 1000 g/h; evaluated after 13 days
Outline: as §1

[4] = tested on: Alopecurus myosuroides (ALOMY); assay: Post-emergence herbicidal glasshouse test on Alopecurus myosuroides; conditions: post-emergence; 1000 g/h; evaluated after 13 days
Outline: as §1

[5] = tested on: Amaranthus retoflexus (AMARE); assay: Post-emergence herbicidal glasshouse test on Amaranthus retoflexus; conditions: post-emergence; 1000 g/h; evaluated after 13 days
Outline: as §1

[6] = tested on: Ipomoea hederacea (IPOHE); assay: Post-emergence herbicidal glasshouse test on Ipomoea hederacea; conditions: post-emergence; 1000 g/h; evaluated after 13 days
Outline: as §1

[7] = tested on: Echinochloa crus-galli (ECHCG); assay: Post-emergence herbicidal glasshouse test on Echinochloa crus-galli; conditions: post-emergence; 1000 g/h; evaluated after 13 days
Outline: as §1

Solanum nigrum (SOLNI) [8] = assay: Post-emergence herbicidal glasshouse test on Solanum nigrum; conditions: post-emergence; 1000 g/h; evaluated after 13 days
Outline: as §1

Setaria faberi (SETFA) [9] = assay: Post-emergence herbicidal glasshouse test on Setaria faberi; conditions: post-emergence; 1000 g/h; evaluated after 13 days
Outline: as §1

Solanum nigrum (SOLNI) [10] = assay: Pre-emergence herbicidal glasshouse test on Solanum nigrum; conditions: pre-emergence; 1000 g/h; evaluated after 13 days
Outline: as §1

Setaria faberi (SETFA) [11] = assay: Pre-emergence herbicidal glasshouse test on Setaria faberi; conditions: pre-emergence; 1000 g/h; evaluated after 13 days
Outline: as §1

[12] = tested on: Echinochloa crus-galli (ECHCG); assay: Pre-emergence herbicidal glasshouse test on Echinochloa crus-galli; conditions: pre-emergence; 1000 g/h; evaluated after 13 days
Outline: as §1

| SMILES | PRE Application ALOMY herbicidal damage (five point scale) [1] | PRE Application IPOHE herbicidal damage (five point scale) [2] | PRE Application AMARE herbicidal damage (five point scale) [3] | POST Application ALOMY herbicidal damage (five point scale) [4] | POST Application AMARE herbicidal damage (five point scale) [5] | POST Application IPOHE herbicidal damage (five point scale) [6] | POST Application ECHCG herbicidal damage (five point scale) [7] | POST Application SOLNI herbicidal damage (five point scale) (Solanum nigrum (SOLNI) [8]) | POST Application SETFA herbicidal damage (five point scale) (Setaria faberi (SETFA) [9]) | PRE Application SOLNI herbicidal damage (five point scale) (Solanum nigrum (SOLNI) [10]) | PRE Application SETFA herbicidal damage (five point scale) (Setaria faberi (SETFA) [11]) | PRE Application ECHCG herbicidal damage (five point scale) [12] |
| --- | --- | --- | --- | --- | --- | --- | --- | --- | --- | --- | --- | --- |
| Cc1c(-c2cnn(C(F)F)c(=O)c2O)ccc(S(C)(=O)=O)c1C1=NOCC1 [Compound 1.005] | 1 (1=0-19% damage) | 1 (1=0-19% damage) | 5 (5=80-100% damage) | 4 (4=60-79% damage) | 5 (5=80-100% damage) | 5 (5=80-100% damage) | 5 (5=80-100% damage) | 5 (5=80-100% damage) | 5 (5=80-100% damage) | 3 (3=40-59% damage) | 5 (5=80-100% damage) | 5 (5=80-100% damage) |
| Cn1ncc(-c2cc(F)ccc2Cl)c(O)c1=O [Compound 1.086] | 1 (1=0-19% damage) | 1 (1=0-19% damage) | 1 (1=0-19% damage) | 1 (1=0-19% damage) | 1 (1=0-19% damage) | 1 (1=0-19% damage) | 1 (1=0-19% damage) | 1 (1=0-19% damage) | 1 (1=0-19% damage) | 1 (1=0-19% damage) | 1 (1=0-19% damage) | 1 (1=0-19% damage) |
| Cn1ncc(-n2ccc(C(F)(F)F)c(-c3ccc(C(F)(F)F)nc3)c2=O)c(O)c1=O [Compound 7.010] | 5 (5=80-100% damage) | 5 (5=80-100% damage) | 5 (5=80-100% damage) | 5 (5=80-100% damage) | 5 (5=80-100% damage) | 5 (5=80-100% damage) | 5 (5=80-100% damage) | 5 (5=80-100% damage) | 5 (5=80-100% damage) | 5 (5=80-100% damage) | 5 (5=80-100% damage) | 5 (5=80-100% damage) |
| Cc1nc(C(F)(F)F)ccc1-c1cnn(C)c(=O)c1O [Compound 1.067] | 1 (1=0-19% damage) | 2 (2=20-39% damage) | 4 (4=60-79% damage) | 2 (2=20-39% damage) | 5 (5=80-100% damage) | 5 (5=80-100% damage) | 5 (5=80-100% damage) | 5 (5=80-100% damage) | 4 (4=60-79% damage) | 3 (3=40-59% damage) | 1 (1=0-19% damage) | 5 (5=80-100% damage) |
| Cn1ncc(-c2cccn(CC(F)(F)F)c2=O)c(O)c1=O [Compound 9.005] | 1 (1=0-19% damage) | 1 (1=0-19% damage) | 1 (1=0-19% damage) | 1 (1=0-19% damage) | 2 (2=20-39% damage) | 2 (2=20-39% damage) | 1 (1=0-19% damage) | 4 (4=60-79% damage) | 1 (1=0-19% damage) | 1 (1=0-19% damage) | 1 (1=0-19% damage) | 1 (1=0-19% damage) |
